The results in this text go back to patent US20090319044A1, “Methods and Compositions for Improving the Incorporation of Orthopaedic and Orthodontic Implants” (priority 2006, published 2009).

The test system of one assay is MC3T3 cells. The assay is described as follows: Cytokine gene expression after A23187 treatment (Quantitative-RT PCR). Conditions: 1 to 6 hours after stimulation, relative to controls. The assay is classed as cell-based. How it is done:
Wear particles and calcium signaling induce cytokine expression in macrophages and osteoblasts. Cytokine gene expression was measured following A23187 treatment in MC3T3 cells by Quantitative-RT PCR. RNA was isolated from the cells using an RNeasy Mini Kit (Qiagen, Valencia, Calif.), and Quantitative-RT PCR was performed using a SYBR Green master mix (Roche, Ind.).

The test system of assay [1] is polyethylene particle-induced osteolysis rodent femur model. As to the kind of experiment: Second in vivo study: micro-CT periprosthetic bone area. Conditions: HA-coated UHMWPE nail soaked in 50 μM zoledronate; right femora; times pooled; p<0.0001 vs control. More on the design: species or system Sprague-Dawley rats. An excerpt: (§1) Experimental Design and Surgical Procedure. In this example, a polyethylene particle-induced osteolysis rodent femur model was used to examine the advantages of using a HA-zoledronate composite on the implant surface for osseous integration and implant stability in the presence of UHMWPE particles. Two critical parameters were examined, namely, peri-implant bone quality (osteolysis) and osseointegration (implant stability).
The 32 rats were divided into two study groups, each composed of 16 rats. Sixteen randomly selected rats served as a control group, which received HA-coated nails. […] Eight rats in each group were sacrificed at 6 weeks following the intramedullary nailing of HA-coated implants and another 8 rats from each group were sacrificed 6 months following the surgery. […]
(§2) In the control group, a radiolucent UHMWPE intramedullary nail, which was coated with HA, was implanted into the right distal femur in a retrograde manner, while a HA-coated titanium intramedullary nail was implanted into the left distal femur. […] Activity level, food intake, the condition of the surgical wound, and clinical signs of infection were monitored daily. […]
Micro-computed Tomography (micro-CT). The right femura with UHMWPE pins were imaged using a quantitative CT (Stratec XCT-3000), running the XCT Series software, version 5.21 (Stratec Medizintechnik GmbH, Pforzheim, Germany). […]

For assay [2] the test system is unchanged. The assay is described as follows: Second in vivo study: biomechanical pull-out testing. Also on record: species or system Sprague-Dawley rats.
Description: as §1
(§3) The 32 rats were divided into two study groups, each composed of 16 rats. Sixteen randomly selected rats served as a control group, which received HA-coated nails. […] Eight rats in each group were sacrificed at 6 weeks following the intramedullary nailing of HA-coated implants and another 8 rats from each group were sacrificed 6 months following the surgery.
After induction of general anesthesia using ketamine (60 mg/kg) and xylazine (5 mg/kg), hair over the knee was removed with a clipper. Right and left knee regions were prepared with 70% alcohol and 1% Betadine solution. A one centimeter longitudinal skin incision was made over the anterior aspect of the distal femur. A medial parapatellar approach was made to expose the intercondylar notch with the knee in flexion. An entry hole was made with a 18-gauge needle. The distal rat femora were reamed with an 18-gauge needle, and then Ceridust® UHMWPE particles (0.1 mL of 50 vol. %; 0.1 to 3 micron in size; Clariant GmbH, Germany) were introduced into the intradmedullary canal prior to implantation.
In the control group, a radiolucent UHMWPE intramedullary nail, which was coated with HA, was implanted into the right distal femur in a retrograde manner, while a HA-coated titanium intramedullary nail was implanted into the left distal femur. The joint capsule was repaired using a 2-0 Vicryl® suture (Johnson & Johnson, New Brunswick, N.J.). The skin was repaired with metal staples. Rats were allowed weight bearing as tolerated in their cages, while subcutaneous injections of buprenorphine (0.05 mg/kg) were given once a day for two post-operative days. Activity level, food intake, the condition of the surgical wound, and clinical signs of infection were monitored daily.
The purpose of using the UHMWPE nail was to minimize imaging artifacts inherent in metal implants for a more accurate analysis of dual energy x-ray absorptiometry (DXA) and microcomputed tomography (micro-CT) analyses, which are describe below. The metallic nail was used for biomechanical testing. The intramedullary nails, 1.4 mm in diameter and 20 mm in length, were custom-made for this study (Stryker, Mahwah, N.J.).
Biomechanical Testing. The left femora of both the 6-week and 6-month control and treatment groups were subjected to biomechanical testing following the imaging studies described herein. […]

For assay [3] the test system is unchanged. As to the kind of experiment: Second in vivo study: dual energy X-ray absorptiometry (DXA). Also on record: species or system Sprague-Dawley rats; bone area (DXA): unit not given here. The note with it: HA-coated nail soaked in 50 μM zoledronate, 6 weeks and 6 months pooled.
Description: as §1
All procedures involving animals were approved by the Institutional Animal Care and Use Committee in accordance with the Association for the Assessment and Accreditation of Laboratory Animal Care guidelines (Columbia University Animal Proctocol AC-AAM5306). In this example, a rodent femur intramedullary nailing model was used with UHMWPE wear debris particles instilled into the intramedullary canal after reaming the femur to stimulate a wear debris reaction. Thirty-two six-month-old adult male Sprague-Dawley rats (weight, 400-500 gm) were purchased (Charles Laboratory, Cambridge, Mass.).
as §3
After induction of general anesthesia using ketamine (60 mg/kg) and xylazine (5 mg/kg), hair over the knee was removed with a clipper. Right and left knee regions were prepared with 70% alcohol and 1% Betadine solution. A one centimeter longitudinal skin incision was made over the anterior aspect of the distal femur. […]
as §2

Assay [4] deals with rodent osteolysis model (UHMWPE wear debris, femur). As to the kind of experiment: First in vivo study: pull-out strength testing of titanium pins. More on the design: species or system rat. The note with it: 24 weeks. An excerpt:
(§4) More particularly, sterile ultrahigh molecular weight polyethylene (UHMWPE) wear debris particles (0.5 cc, 0.1-3 micron particle size) were introduced into the intramedullary cavity of bilateral femurs of 8 rats, which served as the control group in this example. The particles were introduced after reaming the femurs with an 18 gauge needle at the knee joint. Sterile wear debris particles were used in this example to stimulate a wear debris reaction and promote osteolysis. Hydroxyapatite-coated plastic pins and hydroxyapatite-coated titanium pins (1.5 mm×20 mm, Stryker, Kalamazoo, Mich.) were then inserted into the intramedullary canal of the right femur and left femur, respectively.
(§5) The test group, which consisted of 8 rates, also had 0.5 cc of sterile UHMWPE wear debris particles introduced into the femoral intramedullary canal after reaming with an 18 gauge needle at the knee joint.
Incorporation of the implants by the host bone was evaluated by “pull-out strength testing” of the titanium pins (left femurs) (MTS 858 Bionix, MTS Systems Corporation, Minneapolis, Minn.). Such “pull-out strength testing” measures the amount of force (i.e., pull force) that must be applied to displace (or remove) the implant from the bone.

Assay [5] relates to RAW 264.7 mouse macrophage-like cells (osteoclast precursors). As to the kind of experiment: Cell death assay (annexin V-FITC / propidium iodide flow cytometry). The note with it: 50 μM zoledronate, 24 hours. The assay is classed as cell-based. How it is done: MC3T3 cells, which are well-established mouse calvarial cells of osteoblastic lineage, and RAW 264.7 mouse macrophage-like cells, which are well-known to form osteoclasts, were purchased from the American Type Culture Collection and Tissue (Manassas, Va.). MC3T3 and RAW 264.7 cells were grown in Dulbecco's Modified Eagle Medium supplemented with 10% fetal bovine serum, 100 μ/mL penicillin, […] streptomycin, and 0.1% fungizone (amphotericin B). The cells were kept at 37° C. in a humidified atmosphere of 5% CO2 and 95% air.
Cell number was measured, and the cells were centrifuged and resuspended in binding buffer (A.G. Scientific, San Diego, Calif.) to a final cell density of 5×10^5 cells/mL. […] of annexin V-FITC (A.G. Scientific, San Diego, Calif.) was added to […] of cell suspension and incubated for 10 minutes. The cells were centrifuged, washed with PBS and resuspended again in […] of binding buffer. […] of 20 mg/mL propidium iodide (A.G. Scientific, San Diego, Calif.) was added to the cell suspension, and flow cytometry was performed using a FACS Calibur (Becton Dickson, Franklin Lakes, N.J.). Monoparametric cytograms of annexin V-FITC fluorescence (FL1) versus number of events were created using the CellQuest program gating for living cells and excluding dead cells on the basis of their propidium iodide uptake.
In general terms: A flow cytometer gives signals particle by particle.

For assay [6], the system named is rodent osteolysis model (UHMWPE wear debris, femur). The assay is described as follows: First in vivo study: Faxitron and micro-CT imaging of osteolysis around implants. More on the design: species or system rat. The note with it: 24 weeks, vs HA-coated control.
Description: as §4, §5
The rats of the test and control groups were sacrificed at 24 weeks following insertion of the pins and the femurs were retrieved. Faxitron radiographs (Faxitron, Wheeling, Ill.) of the femurs taken from the test and control rats were obtained. […] The femurs with plastic pin implants (the right femurs) were imaged by micro-CT (Stratec XCT-3000, Stratec Medizintechnik GmbH, Pforzheim, Germany).

Setting [7] is: HA-coated titanium nail soaked in 50 μM zoledronate, left femora, times pooled, p<0.0001 vs control.

Turning to `CNc1ccc2oc(C[C@H]3O[C@@]4(CC[C@H]3C)O[C@H]([C@H](C)C(=O)c3ccc[nH]3)[C@H](C)C[C@H]4C)nc2c1C(=O)O` [A23187], in the assay on MC3T3 cells, the COX-2 expression entry is reported as “increase” and the TNF-alpha expression entry is “increase”.

Regarding zoledronate, the “amount of bone mass in the periprosthetic area (micro-CT)” value in assay [1] was 2.388±0.960 mm^2. Moreover, in assay [2] (6-month group), the “increase in total energy to pull-out over control” value is listed as 170.7%. The “increase in total energy to pull-out over control” value in assay [2] (6-weeks group) was found to be 542.8%. In assay [2] (setting [7]), the “average peak pullout force” value came to 241.0±95.1 N and the “energy required to completely pull the pin out of the bone” value amounted to 521.6±293.8 N-mm. Besides, in assay [3] (p<0.0001 vs control), the “bone mineral content (DXA)” value was determined as 0.417 ± 0.064 g and the “bone mineral density (DXA)” value is 0.328±0.036 g/cm^2. Further, the “bone area (DXA)” value in assay [3] (p=0.1222 vs control) is on record as 1.265±0.081. The “peak force to extract the titanium pin implants” value in assay [4] (zoledronate-treated HA-coated titanium pins vs control, p<0.0001) is given as “statistically higher”. The same molecule had a pullout energy in assay [4] (zoledronate-treated HA-coated titanium pins, p=0.0085 vs control) of 5.71±3.42 N-m. Further, the “apoptosis in RAW cells” value in assay [5] is reported as 100%. For the same molecule, in assay [6] (HA-coated plastic pins presoaked in zoledronate 15 minutes, right femur), the “osteolysis around plastic implants (micro-CT)” value is given as “not around such implants in the test rats”. The “osteolysis around titanium implant (Faxitron radiographs)” value in assay [6] (HA-coated titanium pins presoaked in zoledronate 15 minutes, left femur) is recorded as “not around the titanium implants in the test rats”.
